Target: T1, Adenosine deaminase (Bos taurus, UniProt P56658)
T1 sequence (P56658 whole entry): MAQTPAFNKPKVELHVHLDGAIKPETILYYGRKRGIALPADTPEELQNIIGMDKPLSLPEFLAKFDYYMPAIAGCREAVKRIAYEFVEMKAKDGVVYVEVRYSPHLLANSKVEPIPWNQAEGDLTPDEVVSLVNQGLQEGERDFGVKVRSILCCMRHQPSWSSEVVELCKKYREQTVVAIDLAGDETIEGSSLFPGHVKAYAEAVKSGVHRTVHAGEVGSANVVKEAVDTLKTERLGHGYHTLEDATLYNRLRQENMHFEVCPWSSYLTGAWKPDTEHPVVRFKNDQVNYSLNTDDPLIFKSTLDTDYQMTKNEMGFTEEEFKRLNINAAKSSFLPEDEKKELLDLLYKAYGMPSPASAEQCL
Assay: Ability to inhibit the deamination of adenosine by calf intestine adenosine deaminase

**Q.** Which Ki does the source give for Cc1c([C@@H](C)O)ncn1C1O[C@H](CO)[C@@H](O)[C@H]1O (stereo partly specified) here?
**A.** 61 µM
